One assay has as its target IDH1 R132C (Homo sapiens, UniProt O75874, R132C). Nature of the assay: In vitro NADPH depletion assay for IDH1m R132C inhibitors. Format: biochemical. The conditions noted are these: enzyme, diaphorase/resazurin readout, read-out: IDH R132C IC50. How it is done: (§1) A test compound is prepared as 10 mM stock in DMSO and diluted to 50× final concentration in DMSO, for a 50 μl reaction mixture. IDH enzyme activity converting alpha-ketoglutarate to 2-hydroxyglutaric acid is measured using a NADPH depletion assay. In the assay the remaining cofactor is measured at the end of the reaction with the addition of a catalytic excess of diaphorase and resazurin, to generate a fluorescent signal in proportion to the amount of NADPH remaining. IDH1-R132 homodimer enzyme is diluted to […] in 40 μl of Assay Buffer(150 mM NaCl, 20 mM Tris-Cl pH 7.5, 10 mM MgCl2, 0.05% BSA, 2 mM b-mercaptoethanol); 1 μl of test compound dilution in DMSO is added and the mixture is incubated for 60 minutes at room temperature. The reaction is started with the addition of 10 μl of Substrate Mix ([…], 5 mM alpha-ketoglutarate, in Assay Buffer) and the mixture is incubated for 90 minutes at room temperature. The reaction is terminated with the addition of 25 μl of Detection Buffer (36 μg/ml diaphorase, […], in 1× Assay Buffer), and is incubated for 1 minute before reading on a SpectraMax platereader at Ex544/Em590.
Compounds are assayed for their activity against IDH1 R132C following the same assay as above with the following modifications: Assay Buffer is (50 mM potassium phosphate, pH 6.5; 40 mM sodium carbonate, 5 mM MgCl2, 10% glycerol, 2 mM b-mercaptoethanol, and 0.03% BSA). The concentration of NADPH and alpha-ketoglutarate in the Substrate Buffer is 20 μM and 1 mM, respectively.
(§2) Representative compounds of formula I set forth in Table 1 were tested in this assay and the results are set forth below in Table 3.

A further assay concerns the target IDH1 R132H (Homo sapiens, UniProt O75874, R132H). Nature of the assay: In vitro NADPH depletion assay for IDH1m R132H inhibitors. Format: biochemical. Conditions: enzyme, diaphorase/resazurin readout, read-out: IDH R132H IC50. The procedure:
as §1, §2

Another assay concerns HT1080 cells. Put plainly: Cellular assay, inhibition of 2-HG production (LC-MS) in HT1080 cells. The conditions noted are these: Homo sapiens, HT-1080, 48 hours, LC-MS of media. The format is cell-based. How it is done:
Cells (HT1080 or U87MG) are grown in T125 flasks in DMEM containing 10% FBS, 1× penicillin/streptomycin and 500 ug/mL G418 (present in U87MG cells only). They are harvested by trypsin and seeded into 96 well white bottom plates at a density of 5000 cell/well in 100 μl/well in DMEM with 10% FBS. No cells are placed in columns 1 and 12. Cells are incubated overnight at 37° C. in 5% CO2. The next day test compounds are made up at 2× the final concentration and 100 μl are added to each cell well. The final concentration of DMSO is 0.2% and the DMSO control wells are plated in row G. The plates are then placed in the incubator for 48 hours. At 48 hours, 100 μl of media is removed from each well and analyzed by LC-MS for 2-HG concentrations. The cell plate is placed back in the incubator for another 24 hours. At 72 hours post compound addition, 10 mL/plate of Promega Cell Titer Glo reagent is thawed and mixed. The cell plate is removed from the incubator and allowed to equilibrate to room temperature. Then 100 μl of Promega Cell Titer Glo reagent is added to each well of media. The cell plate is then placed on an orbital shaker for 10 minutes and then allowed to sit at room temperature for 20 minutes. The plate is then read for luminescence with an integration time of 500 ms.
The IC50 for inhibition of 2-HG production (concentration of test compound to reduce 2HG production by 50% compared to control) in these two cell lines for various compounds of formula I is set forth in Table 2 above.

We go through 27 compounds from patent US20160304556A1, “[…] ACTIVE COMPOUNDS AND THEIR METHODS OF USE” (AGIOS PHARMACEUTICALS, INC, priority 2012, published 2016).

Chain of IDH1 R132C (O75874 whole entry R132C): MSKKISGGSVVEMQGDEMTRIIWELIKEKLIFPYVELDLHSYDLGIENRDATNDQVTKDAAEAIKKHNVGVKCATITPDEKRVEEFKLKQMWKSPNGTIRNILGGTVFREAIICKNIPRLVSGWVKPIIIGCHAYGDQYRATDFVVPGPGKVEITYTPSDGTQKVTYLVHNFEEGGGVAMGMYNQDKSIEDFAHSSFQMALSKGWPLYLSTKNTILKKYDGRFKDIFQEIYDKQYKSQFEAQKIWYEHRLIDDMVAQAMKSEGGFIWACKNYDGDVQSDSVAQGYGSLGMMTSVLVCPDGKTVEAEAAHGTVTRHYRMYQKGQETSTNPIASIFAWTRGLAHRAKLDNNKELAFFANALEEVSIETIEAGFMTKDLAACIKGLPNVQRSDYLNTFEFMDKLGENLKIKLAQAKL
Chain of IDH1 R132H (O75874 whole entry R132H): as the sequence (O75874 whole entry R132C) above, with C132H counted along it

Take `COC(=O)NCC(=O)N(c1cccc(F)c1)[C@H](C(=O)N[C@H]1CCCC(F)(F)C1)c1ccccc1Cl` (single isomer, unassigned) [Compound 94, methyl 2-((1-(2-chlorophenyl)-2-(3,3-difluorocyclohexylamino)-2-oxoethyl) (3-fluoro-phenyl)amino)-2-oxoethylcarbamate]: the IC50 at IDH1 R132C and at IDH1 R132H was 100 to 500 nM in each case.
In the case of `COC(=O)NCC(=O)N(c1cccc(F)c1)[C@H](C(=O)N[C@@H]1CCCC(F)(F)C1)c1ccccc1Cl` (single isomer, unassigned) [Compound 95, methyl 2-((1-(2-chlorophenyl)-2-(3,3-difluorocyclohexylamino)-2-oxoethyl) (3-fluoro-phenyl)amino)-2-oxoethylcarbamate], the IC50 on IDH1 R132C and on IDH1 R132H was 100 to 500 nM each time.
As for `COC(=O)N1[C@@H](C(=O)N(c2cccc(F)c2)[C@H](C(=O)NC2CC(F)(F)C2)c2ccccc2Cl)CCC1(C)C` (single isomer, unassigned) [Compound 114], the IC50 on IDH1 R132C was not above 100 nM; on IDH1 R132H it was 100 to 500 nM; in the assay on HT1080 cells it was 100 to 500 nM.
`COC(=O)N1[C@H](C(=O)N(c2cccc(F)c2)[C@H](C(=O)NC2CC(F)(F)C2)c2ccccc2Cl)CCC1(C)C` (single isomer, unassigned) [Compound 115]: the IC50 at IDH1 R132C was in the range of 100 to 500 nM; on IDH1 R132H, 100 to 500 nM; in the assay on HT1080 cells, 500 to 1000 nM.
Consider `O=C(NC1CC(F)(F)C1)[C@H](c1ccccc1Cl)N(C(=O)[C@@H]1CCN1c1ncccn1)c1cccc(F)c1` (stereo in doubt) [Compound 102], for which the IC50 is not above 100 nM at IDH1 R132C, 100 to 500 nM on IDH1 R132H and 100 to 500 nM in the assay with HT1080 cells.
As for `O=C(NC1CC(F)(F)C1)[C@@H](c1ccccc1Cl)N(C(=O)[C@@H]1CCN1c1ccccn1)c1cccc(F)c1` (stereo in doubt) [Compound 105], the IC50 is not above 100 nM at IDH1 R132C, 100 to 500 nM on IDH1 R132H and 100 to 500 nM in the assay with HT1080 cells.
Consider `COC(=O)N1CCOC[C@H]1C(=O)N(c1cccc(F)c1)[C@H](C(=O)NC1CCCCC1)c1ccccc1C` [Compound 23], for which the IC50 at IDH1 R132C and in the assay on HT1080 cells was not above 100 nM in each case.
Regarding `O=C(NC1CCCCC1)C(c1ccc(F)cc1F)N(C(=O)Cn1cnc(Cl)c1Cl)c1cccc(F)c1` (stereo not drawn) [Compound 29], the IC50 at IDH1 R132C is not above 100 nM; at IDH1 R132H, not above 100 nM; in the assay with HT1080 cells, 100 to 500 nM.
Regarding `O=C(NC1CC(F)(F)C1)C(c1ccccc1Cl)N(C(=O)Cn1cnc(Cl)c1Cl)c1cccc(F)c1` (stereo not drawn) [Compound 35], the IC50 at IDH1 R132C is not above 100 nM; at IDH1 R132H, not above 100 nM; in the assay with HT1080 cells, 100 to 500 nM.
Turning to `O=C(NC1CC(F)(F)C1)C(c1ccccc1Cl)N(C(=O)Cn1cncn1)c1cccc(F)c1` (stereo not drawn) [Compound 36], the results for the IC50 on IDH1 R132C and on IDH1 R132H were 1000 to 2000 nM and 100 to 500 nM, respectively.
As to `O=C(NC1CCC(F)(F)CC1)C(c1ccccc1Cl)N(C(=O)CNc1ncccc1F)c1cccc(F)c1` (stereo not drawn) [Compound 48], the IC50 on IDH1 R132C was not above 100 nM; at IDH1 R132H, not above 100 nM; in the assay on HT1080 cells, 100 to 500 nM.
Regarding `O=C(NC1CCC(F)(F)CC1)C(c1ccccc1Cl)N(C(=O)Cn1cnnn1)c1cccc(F)c1` (stereo not drawn) [Compound 49], the IC50 on IDH1 R132C and at IDH1 R132H was 100 to 500 nM each time.
Turning to `COC(=O)N[C@@H](CO)C(=O)N(c1cccc(F)c1)C(C(=O)NC1CC(F)(F)C1)c1ccccc1Cl` (stereo partly drawn) [Compound 56], the IC50 on IDH1 R132C fell in the range of 500 to 1000 nM; on IDH1 R132H it was 100 to 500 nM.
`COC(=O)N1C[C@H](N)C[C@H]1C(=O)N(c1cccc(F)c1)[C@H](C(=O)NC1CC(F)(F)C1)c1ccccc1Cl` [Compound 65]: the IC50 on IDH1 R132C fell in the range of 500 to 1000 nM; on IDH1 R132H, 100 to 500 nM.
For `COC(=O)N1CCC[C@H]1C(=O)N(c1cccc(F)c1)[C@H](C(=O)NC1CC(F)(F)C1)c1c(Cl)cccc1Cl` [Compound 66], the IC50 on IDH1 R132C, on IDH1 R132H and in the assay with HT1080 cells was 100 to 500 nM each time.
For the compound `COC(=O)N1CCN(C(C)=O)C[C@H]1C(=O)N(c1cccc(F)c1)[C@@H](C(=O)NC1CC(F)(F)C1)c1ccccc1Cl` [Compound 67, (S)-Methyl 4-acetyl-2-(((R)-1-(2-chlorophenyl)-2-(3,3-difluorocyclobutylamino)-2-oxoethyl)(3-fluorophenyl)carbamoyl)piperazine-1-carboxylate], the IC50 at IDH1 R132C and on IDH1 R132H was 100 to 500 nM each time.
As for `COC(=O)N1CCN(C(C)=O)C[C@H]1C(=O)N(c1cccc(F)c1)[C@H](C(=O)NC1CC(F)(F)C1)c1ccccc1Cl` [Compound 68, (S)-Methyl 4-acetyl-2-(((S)-1-(2-chlorophenyl)-2-(3,3-difluorocyclobutylamino)-2-oxoethyl) (3-fluorophenyl)carbamoyl)piperazine-1-carboxylate], the IC50 on IDH1 R132C was not above 100 nM; on IDH1 R132H it was not above 100 nM; in the assay with HT1080 cells, 100 to 500 nM.
In the case of `O=C(NC1CC(F)(F)C1)C(c1ccccc1Cl)N(C(=O)Cn1ccnc1CO)c1cccc(F)c1` (stereo not drawn) [Compound 72], the IC50 at IDH1 R132C is 500 to 1000 nM; on IDH1 R132H, 100 to 500 nM.
For `COC(=O)NCC(=O)N(c1cccc(F)c1)C(C(=O)NC1CC(F)(F)C1)c1c(Cl)cccc1Cl` (stereo not drawn) [Compound 76], the IC50 on IDH1 R132C and on IDH1 R132H was 100 to 500 nM throughout.
Regarding `COC(=O)NCC(=O)N(c1cccc(F)c1)C(C(=O)NC1CC(F)(F)C1)c1c(F)cccc1Cl` (stereo not drawn) [Compound 77], the IC50 on IDH1 R132C lay within 500 to 1000 nM; at IDH1 R132H, 100 to 500 nM.
Consider `COC(=O)NCC(=O)N(c1cccc(F)c1)C(C(=O)NC1CC(F)(F)C1)c1c(F)cccc1F` (stereo not drawn) [Compound 78], for which the half-maximal inhibitory concentration (IC50) on IDH1 R132C lay in the range of 1000 to 2000 nM; on IDH1 R132H it was 500 to 1000 nM.
For `COC(=O)N1CCN(C)C[C@H]1C(=O)N(c1cccc(F)c1)[C@H](C(=O)NC1CC(F)(F)C1)c1ccccc1Cl` [Compound 80, (S)-Methyl 2-(((S)-1-(2-chlorophenyl)-2-(3,3-difluorocyclobutylamino)-2-oxoethyl)-(3-fluorophenyl)carbamoyl)-4-methylpiperazine-1-carboxylate], the IC50 on IDH1 R132C and on IDH1 R132H was 100 to 500 nM throughout.
As for `COC(=O)N1C[C@@H](N)C[C@H]1C(=O)N(c1cccc(F)c1)[C@H](C(=O)NC1CC(F)(F)C1)c1ccccc1Cl` [Compound 89], the IC50 fell in the range of 500 to 1000 nM at IDH1 R132C and 100 to 500 nM on IDH1 R132H.
As for `COC(=O)N[C@H](C(=O)N(c1cccc(F)c1)C(C(=O)NC1CC(F)(F)C1)c1ccccc1Cl)[C@@H](C)O` (stereo partly drawn) [Compound 99], the IC50 at IDH1 R132C and at IDH1 R132H was 500 to 1000 nM throughout.
Consider `O=C(NC1CC(F)(F)C1)[C@H](c1ccccc1Cl)N(C(=O)[C@@H]1CCN1c1ncccn1)c1cccc(F)c1` [Compound 103], for which the 50% inhibitory concentration (IC50) on IDH1 R132C lay in the range of 500 to 1000 nM; on IDH1 R132H, 1000 to 2000 nM.
`COC(=O)N1C[C@H](OCCN(C)C)C[C@H]1C(=O)N(c1cccc(F)c1)[C@H](C(=O)NC1CC(F)(F)C1)c1ccccc1Cl` [Compound 104]: the IC50 on IDH1 R132C was 1000 to 2000 nM; on IDH1 R132H it was 500 to 1000 nM.
With `O=C(NC1CC(F)(F)C1)C(c1ccccc1Cl)N(C(=O)c1ccnn1-c1ncccn1)c1cccc(F)c1` (stereo not drawn) [Compound 116, N-(1-(2-chlorophenyl)-2-((3,3-difluorocyclobutyl)amino)-2-oxoethyl)-N-(3-fluorophenyl)-1-(pyrimidin-2-yl)-1H-pyrazole-5-carboxamide], the IC50 was 100 to 500 nM at IDH1 R132C and 500 to 1000 nM at IDH1 R132H.
